Values joined by “and” are separate entries in the source; they are usually repeats but may differ in a detail not shown here. Equal values may be shown once.
Key:
Dirofilaria immitis = experiment: D. immitis L3 infection of NSG mice (FR3 Missouri strain or strain not stated), treatment, recovery and count of worms at necropsy; format: in vivo; details: for % Rec (percent of the original 50 Di recovered): 1 mg/kg
[1] = tested on: Dirofilaria immitis (Merial worms, UC strain); experiment: D. immitis L3 infection of NSG mice with Merial worms / UC strain, treatment, recovery and count of worms; format: in vivo; details: for % Rec, Mean / Mean % Rec: group mean; for Mean Survival / Survival, Mean: in vivo
[2] = NSG mice, 50 Di L3 Merial worms, 1 mg/kg on Days 1, 15, and 30, recovery Days 41 to 43
[3] = NSG mice, 50 Di L3 UC strain, High Dose 2 mg/kg on Days 1, 15, and 30, recovery Days 41 and 42
[4] = NSG mice, 50 Di L3 UC strain, Normal Dose 1 mg/kg on Days 1, 15, and 30, recovery Days 41 and 42

**Q.** `CC(C)C[C@H]1C(=O)O[C@H](C)C(=O)N(C)[C@@H](CC(C)(C)F)C(=O)O[C@H](Cc2ccc(C3CCOCC3)cc2)C(=O)N(C)[C@@H](CC(C)C)C(=O)O[C@H](C)C(=O)N(C)[C@@H](CC(C)(C)F)C(=O)O[C@H](Cc2ccc(C3CCOCC3)cc2)C(=O)N1C` [compound 8800] was tested. Which “% Red” value (Dirofilaria immitis; 8800 5 mg/kg Days 1, 15, 30, 50 Di L3 per NSG mouse, Table 14, vs Control) did it give?
**A.** Its value is 100%.

**Q.** And the “% Rec, Mean” value (Dirofilaria immitis; 8800 5 mg/kg Days 1, 15, 30, 50 Di L3 per NSG mouse, recovery Days 41 to 42, Table 14, group mean)?
**A.** Its value is 0%.

**Q.** And the “% Rec” value (Dirofilaria immitis; 8800 5 mg/kg Days 1, 15, 30, 50 Di L3 per NSG mouse, recovery Days 41 to 42, Table 14, individual mice)?
**A.** The value was 0%.

**Q.** What about the “% Red” value (Dirofilaria immitis; NSG mice, 50 Di L3, 2x (1 mg/kg) at Days 1 and 30, recovery Days 41 to 43) of the same molecule?
**A.** Its value is 38%.

**Q.** What about the “% Red” value (Dirofilaria immitis; NSG mice, 50 Di L3 Day 0, 1 mg/kg EMO or 8800 on Days 30 and 60, recovery Days 83 and 84) of the same molecule?
**A.** The value was 43%.

**Q.** And the “% Red (percent reduction in percent of Di recovered compared to control)” value (Dirofilaria immitis; NSG mice, 50 Di L3 Day 0, 1 mg/kg on Day 30, recovery Days 41 to 43)?
**A.** The value was 23%.

**Q.** And the “% Red” value (Dirofilaria immitis; Table 9, NSG mice, 50 Di L3, 1 mg/kg on Days 1, 15, and 30, recovery Days 41 to 43)?
**A.** The value was 73%.

**Q.** And the “Mean % Rec” value (Dirofilaria immitis; Table 9, group mean, NSG mice, 50 Di L3, 1 mg/kg on Days 1, 15, and 30, recovery Days 41 to 43)?
**A.** Its value is 9%.

**Q.** And the “% Rec” value (Dirofilaria immitis; Table 9, individual mouse, NSG mice, 50 Di L3, 1 mg/kg on Days 1, 15, and 30, recovery Days 41 to 43)?
**A.** Its value is 8% (3×) and 10% and 28% and 16% and 0%.

**Q.** And the “% Red” value (Dirofilaria immitis; Table 11, NSG mice, 50 Di L3, 0.3 mg/kg on Days 1, 15, and 30, recovery Days 41 to 42)?
**A.** Its value is 0%.

**Q.** What about the “% Red” value (Dirofilaria immitis; Table 11, NSG mice, 50 Di L3, 1 mg/kg on Days 1, 15, and 30, recovery Days 41 to 42) of the same molecule?
**A.** The value was 71%.

**Q.** What about the “Mean % Rec” value (Dirofilaria immitis; Table 11, group mean, NSG mice, 50 Di L3, 0.3 mg/kg on Days 1, 15, and 30, recovery Days 41 to 42) of the same molecule?
**A.** Its value is 26%.

**Q.** And the “Mean % Rec” value (Dirofilaria immitis; Table 11, group mean, NSG mice, 50 Di L3, 1 mg/kg on Days 1, 15, and 30, recovery Days 41 to 42)?
**A.** Its value is 7%.

**Q.** What about the “% Rec” value (Dirofilaria immitis; Table 11, individual mouse, NSG mice, 50 Di L3, 0.3 mg/kg on Days 1, 15, and 30, recovery Days 41 to 42) of the same molecule?
**A.** Its value is 16% (2×) and 36% (3×) and 14%.

**Q.** And the “% Rec” value (Dirofilaria immitis; Table 11, individual mouse, NSG mice, 50 Di L3, 1 mg/kg on Days 1, 15, and 30, recovery Days 41 to 42)?
**A.** Its value is 4% (2×) and 2% and 16% and 8% and 6%.

**Q.** And the “Mean % Rec” value (Dirofilaria immitis; group mean, NSG mice, 50 Di L3, 2x (1 mg/kg) at Days 1 and 30, recovery Days 41 to 43)?
**A.** Its value is 21%.

**Q.** And the “Mean % Rec” value (Dirofilaria immitis; group mean, NSG mice, 50 Di L3 Day 0, 1 mg/kg EMO or 8800 on Days 30 and 60, recovery Days 83 and 84)?
**A.** Its value is 8%.

**Q.** And the “Mean % Rec” value (Dirofilaria immitis; group mean, NSG mice, 50 Di L3 Day 0, 1 mg/kg on Day 30, recovery Days 41 to 43)?
**A.** Its value is 31%.

**Q.** And the Survival (Dirofilaria immitis; in vivo, 5 mg/kg)?
**A.** The Survival was 0.

**Q.** And the “Survival, Mean” value (Dirofilaria immitis; in vivo, 5 mg/kg)?
**A.** Its value is 0.

**Q.** What about the “% Rec” value (Dirofilaria immitis; individual mouse, NSG mice, 50 Di L3, 2x (1 mg/kg) at Days 1 and 30, recovery Days 41 to 43) of the same molecule?
**A.** The value was 22% and 16% and 12% and 26% and 20% and 32%.

**Q.** What about the “% Rec (percent of the original 50 Di recovered)” value (Dirofilaria immitis; individual mouse, NSG mice, 50 Di L3 Day 0, 1 mg/kg EMO or 8800 on Days 30 and 60, recovery Days 83 and 84) of the same molecule?
**A.** The value was 14% and 4% (2×) and 10% and 12% and 6%.

**Q.** And the “% Rec (percent of the original 50 Di recovered)” value (Dirofilaria immitis; individual mouse, NSG mice, 50 Di L3 Day 0, 1 mg/kg on Day 30, recovery Days 41 to 43)?
**A.** The value was 24% (3×) and 36% and 28% and 52%.

**Q.** And the “% Rec, Mean” value ([1]; 8800 1 mg/kg Days 1, 15, 30, 50 Di L3 (UC Strain) per NSG mouse, recovery Days 41 to 43)?
**A.** The value was 10%.

**Q.** What about the “% Rec” value ([1]; 8800 1 mg/kg Days 1, 15, 30, 50 Di L3 (UC Strain) per NSG mouse, recovery Days 41 to 43, individual mice, 1 mg/kg) of the same molecule?
**A.** The value was 10% (2×) and 14% and 16% and 4% and 6% and 12%.

**Q.** And the “% Red” value ([1]; 8800 1 mg/kg Days 1, 15, 30, 50 Di L3 (UC Strain) per NSG mouse, vs Control)?
**A.** Its value is 73%.

**Q.** What about the “% Rec, Mean” value ([1]; 8800 2 mg/kg Days 1, 15, 30, 50 Di L3 (UC Strain) per NSG mouse, recovery Days 41 to 43) of the same molecule?
**A.** The value was 2%.

**Q.** And the “% Rec” value ([1]; 8800 2 mg/kg Days 1, 15, 30, 50 Di L3 (UC Strain) per NSG mouse, recovery Days 41 to 43, individual mice, 2 mg/kg)?
**A.** The value was 2% (3×) and 0% (2×) and 6% and 4%.

**Q.** And the “% Red” value ([1]; 8800 2 mg/kg Days 1, 15, 30, 50 Di L3 (UC Strain) per NSG mouse, vs Control)?
**A.** The value was 94%.

**Q.** And the “% Red” value [1, 2]?
**A.** The value was 65%.

**Q.** What about the “% Red” value [1, 3] of the same molecule?
**A.** The value was 94%.

**Q.** What about the “% Red” value [1, 4] of the same molecule?
**A.** Its value is 81%.

**Q.** And the “Mean % Rec” value [1, 2]?
**A.** Its value is 12%.

**Q.** And the “Mean % Rec” value [1, 3]?
**A.** Its value is 2%.

**Q.** What about the “Mean % Rec” value [1, 4] of the same molecule?
**A.** Its value is 7%.

**Q.** And the “Mean Survival” value ([1]; 1 mg/kg)?
**A.** Its value is 6 and 4.

**Q.** What about the “Survival, Mean” value ([1]; 1 mg/kg) of the same molecule?
**A.** Its value is 5.

**Q.** What about the “Mean Survival” value ([1]; 2 mg/kg) of the same molecule?
**A.** The value was 1.

**Q.** And the “Survival, Mean” value ([1]; 2 mg/kg)?
**A.** The value was 1.

**Q.** What about the “% Rec” value ([1]; individual mouse, NSG mice, 50 Di L3 Merial worms, 1 mg/kg on Days 1, 15, and 30, recovery Days 41 to 43, 1 mg/kg) of the same molecule?
**A.** Its value is 0% (2×) and 12% (3×) and 8% and 32% and 16%.

**Q.** And the “% Rec” value ([1]; individual mouse, NSG mice, 50 Di L3 UC strain, High Dose 2 mg/kg on Days 1, 15, and 30, recovery Days 41 and 42, 2 mg/kg)?
**A.** Its value is 2% (3×) and 0% (3×) and 8%.

**Q.** And the “% Rec” value ([1]; individual mouse, NSG mice, 50 Di L3 UC strain, Normal Dose 1 mg/kg on Days 1, 15, and 30, recovery Days 41 and 42, 1 mg/kg)?
**A.** The value was 6% (2×) and 4% and 2% and 8% and 10% and 14%.

Source: patent publication US20200011856A1, “Method for Determining the Effectiveness of Treatment for the Prevention of Heartworm Disease” (priority 2017, published 2020)
